Test results as given in US8669243B2, “Steroid-derived cyclopamine analogs and methods for using the same in the prevention or treatment of cancer” (The Wistar Institute, priority 2007, dated 2014).
Entries after “also recorded” stand apart in the source; their conditions may differ.

Key:
Format in all cases: cell-based
[1] = tested on: SHH-induced GLI-luciferase activity in SHH-Light2 cells; assay: SHH-Light2 GLI-dependent firefly luciferase reporter assay
Protocol: Shh-Light2 cells were seeded at 70% confluency in 24 wells, 24 hours prior to treatment. They were then cultured for an additional 48 hours in standard serum-containing media prior to analysis. GLI-binding site luciferase activities were measured using the luciferase reporter assay system with the luciferase kit (PROMEGA).
SHH-light2 cells were treated with SHH (600 ng/ml, R&D) alone or in combination with cyclopamine (CYC), analog 33 or analog 37. CYC, analog 33 and analog 37 were used at […].
One screen involved examining the activation of the SHH pathway using the well-established cell line, SHH-Light2 cells. This cell line is a 3T3 clone that stably expresses a GLI-dependant firefly luciferase (Taipale, et al. (2000) Nature 406:1005-1009). […] Concentrations of each analog, ranging from 20 μM to 2.5 μM, were tested. SHH-Light2 cells were seeded 24 hours prior to treatment. They were then cultured for an additional 48 hours in standard serum-containing media prior to analysis. GLI-binding site luciferase activities were measured using a commercially available luciferase reporter assay system.
The activity of analogs 33 and 37 on the SHH signaling pathway was analyzed using the SHH-Light2 cells described herein.

[2] = tested on: human medulloblastoma DAOY cells; assay: DAOY cell survival, colorimetric MTT assay; conditions: 72 hours treatment; FIG. 6
Protocol: DAOY cells were treated for 72 hours with either cyclopamine (CYC), analog 33 or analog 37 before cell survival was assayed with a colorimetric MTT assay. Absorbance at 570 nm is directly proportional to the number of living cells.
Abnormal activation of the SHH signaling pathway has been linked to various cancers including medulloblastoma, a malignancy of the cerebellum with the highest incidence of all human pediatric malignant brain tumors. A subset of these tumors is thought to arise from deregulation of GNP development in the cerebellum and require SHH signaling for their growth. It was therefore tested whether analogs 33 and 37 were also efficient in reducing the viability of medulloblastoma cells using human medulloblastoma DAOY cells.

[3] = tested on: granule neuron precursors (GNPs) purified from postnatal mouse cerebella; assay: SHH-induced granule neuron precursor (GNP) proliferation, BrdU incorporation; design: inhibition of SHH-induced GNP proliferation (percentage BrdU positive): dose or concentration left out as unconfirmed; conditions: for inhibition of SHH-induced GNP proliferation (BrdU-positive cells): 10 μM, SHH 600 ng/ml, FIG. 2; for inhibition of SHH-induced GNP proliferation (percentage BrdU positive): BrdU 6 hours before fixation, FIG. 5
Protocol: Purified GNPs were either not treated (CTR, n=4) or treated with SHH (600 ng/ml (n=4), alone or in combination with cyclopamine (10 μM, n=4), tomatidine (10 μM, n=4), analog 18 (10 μM, n=4) or estrone 15 (10 μM, n=2). BrdU-positive cells were counted with a fluorescent microscope using a 20× objective, wherein at least ten independent fields for each culture condition were counted per culture condition.
It has previously been shown that SHH is a potent mitogen for granule neuron precursors (GNPs) purified from postnatal mouse cerebella (Dahmane & Ruiz I Altaba (1999) Development 126:3089-3200). This well-established system was used to test the instant steroid-derived cyclopamine analogs for their activity in inhibiting this proliferative response of GNPs to SHH. […] GNPs were purified from postnatal day 5 (P5) mouse cerebella, plated on poly-D-lysine in serum-free DMEM-F12 and treated with either SHH alone or SHH plus the analogs. Treatment with SHH and cyclopamine was used as a control for inhibition.
GNPs were purified from postnatal day 5 (P5) mouse cerebella and treated with either SHH alone, or SHH in combination with cyclopamine, analog 33, or analog 37, each used at […]. BrdU was added to the media 6 hours before fixation. Percentage of brdU positive was determined following counting with a fluorescence microscope using a 20× objective (AXIOSKOP, ZEISS). At least five independent fields for each culture condition were counted. The analysis was performed on three independent experiments. Statistical analysis was performed with the Student t test.

Structure (SMILES) | inhibition of SHH-induced reporter activity ([1]; 5 μM, recombinant SHH (200 ng), 48 hours, FIGS. 3 and 4) | cell survival / viability of DAOY cells (absorbance at 570 nm) [2] | inhibition of SHH-induced GNP proliferation (BrdU-positive cells) [3] | inhibition of SHH-induced GNP proliferation (percentage BrdU positive) [3] | inhibition of SHH-induced activation of GLI-dependant firefly luciferase ([1]; 2.5 μM, recombinant SHH (200 ng), FIG. 1C) | inhibition of SHH-induced activation of GLI-dependant firefly luciferase ([1]; 5 μM, recombinant SHH (200 ng), FIG. 1B) | inhibition of SHH-induced activation of GLI-dependant firefly luciferase ([1]; 10 μM, recombinant SHH (200 ng), FIG. 1A) | inhibition of SHH signaling activity (GLI-luciferase) ([1]; SHH 600 ng/ml, FIG. 4)
CC1=C2C[C@H]3[C@@H](CC=C4C[C@@H](O)CC[C@@]43C)[C@@H]2CC[C@]12O[C@@H]1C[C@H](C)CN[C@H]1[C@H]2C [cyclopamine] | largely blocked | significant decrease of cell survival | significantly decreased cell proliferation | blocked |  |  |  | 
C[C@]12CC[C@@H]3c4ccc(O)cc4CC[C@H]3[C@@H]1CC[C@@]21Cc2ncccc2O1 [compound 18] |  |  | as potent as cyclopamine |  | inhibited SHH activity comparable to cyclopamine | inhibited SHH activity comparable to cyclopamine | effectively inhibited SHH activity | 
C[C@H]1CC[C@]2(NC1)O[C@H]1C[C@H]3[C@@H]4CC[C@H]5C[C@@H](O)CC[C@]5(C)[C@H]4CC[C@]3(C)[C@H]1[C@@H]2C [tomatidine, reference compound] |  |  | had no effect |  |  |  |  | 
C[C@]12CC[C@@H]3c4ccc(O)cc4CC[C@H]3[C@@H]1CC[C@@]21C[C@@H]([C@H]2CCCN2)O1 [compound 37] |  | significant decrease of cell survival; also recorded: active in reducing DAOY cells viability |  | as potent as cyclopamine; also recorded: blocked |  |  |  | strong inhibition of SHH signaling activity comparable to that of cyclopamine
